Results from ChEMBL document CHEMBL3600288, “Development of Selective Covalent Janus Kinase 3 Inhibitors” (J Med Chem, 2015).

Tests used:
Assay type in all cases: ADME, organism-based
[1] = Cmax in Swiss albino mouse at 2 mg/kg, iv; set-up: dose 2 mg/kg, route intravenous; settings: in vivo
Mus musculus [2] = test: AUClast in Swiss albino mouse at 10 mg/kg, po; set-up: dose 10 mg/kg, route oral, time 0 - last; settings: in vivo
Mus musculus [3] = test: AUClast in Swiss albino mouse at 2 mg/kg, iv; set-up: dose 2 mg/kg, time 0 - last, route intravenous; settings: in vivo
[4] = Cmax in Swiss albino mouse at 10 mg/kg, po; set-up: dose 10 mg/kg, route oral; settings: in vivo
[5] = Tmax in Swiss albino mouse at 10 mg/kg, po; settings: in vivo
[6] = Oral bioavailability in Swiss albino mouse at 10 mg/kg; settings: in vivo
[7] = Volume of distribution at steady state in Swiss albino mouse at 2 mg/kg, iv; settings: in vivo, read-out: Vdss

Cmax [1]: 159 ng/mL
AUClast (Mus musculus [2]): 795.29 h/ng/mL
AUClast (Mus musculus [3]): 241.3 h/ng/mL
Cmax [4]: 204 ng/mL
Tmax [5]: 30 min
bioavailability [6]: 66%
Vd [7]: 18.4 L/kg
SMILES: C=CC(=O)Nc1cccc(CNc2nc(Nc3ccc(N4CCN(C)CC4)cc3OC)ncc2Cl)c1
